Assay results published in patent publication US20110098255A1, “COMBINATION OF A PARP INHIBITOR AND AN AKT KINASE ACTIVATING COMPOUND” (priority 2008, published 2011).

Assays:
[1] = tested on: MBP induced formation of EAE in PJSJL mice; conditions: cited from earlier work
[2] = tested on: LPS induced septic shock in normal BALB/c mice; conditions: cited from earlier work
[3] = tested on: cuprisone induced changes in the central nervous system of C57BL/6 mice (corpus callosum demyelinization); assay: Cuprizone induced demyelinization determined with MRI (CC/control tube intensity); assay type: in vivo; conditions: cuprizone-treated mice, after 5 weeks of treatment, i.p.
Procedure: (§1) During the experiment C57BL/6 mice were kept in a standard environment, they were given tap water and ground mice feed ad libitum. The mice were taken care of according to ethical requirements relating to treatment of animals.
(§2) According to a previously described method [Journal of Neuroimmunology 92 (1998): 38-49], 7-8 week old C57BL/6 male mice were treated for 6 weeks per os with cuprizone (Sigma, Steinheim, Germany). The mice were divided into 5 groups with 8 mice in each group.
(§3) Oxidation of cuprizone was prevented by giving fresh feed to the mice every day. PARP inhibitors and/or Akt kinase activating agents were placed in physiological saline solution, filtered to sterility, and administered intraperitoneally in the proper dosage. […] Control animals were given i.p. an amount of sterile physiological solution corresponding to their bodymass.
(§4) It is known from the literature (NMR Biomed. 2005 Oct.; 18(6):395-403) that T1 and T2 MRI image intensity correlates with the degradation and regeneration of the myelin sheath in this model. Oedema and hydrocephalus registers as hyperintensity on the T2 image. For quantification of hydrocephalus MRI is more suitable than histology because during fixation and histological processing there is significant shrinkage and volume degradation (Exp. Neurology 118 (1992): 1-6). MRI micro image technique makes it possible to study the above changes in vivo for weeks.
(§5) After three weeks, the mice were placed into the NMR instrument in narcosis every week [5 mg/kg bodymass diazepam (Seduxen) and 90 mg/kg bodymass ketamine (Calypsol, Richter Gedeon Zrt., Budapest) intraperitoneally]. T1 and T2 images were acquired with Varian ^uNITYIINOVA NMR spectrometer from the bulbus olfactorius to the beginning of the spinal cord in transverse sections of 1 mm thickness. Signal intensity of a glass tube with 1 mm internal diameter, which was filled with 9:1 water-glycerin mixture, was used as outer control. The development and size of demyelinization was determined by comparing average signal intensity detected at the area of the corpus callosum with the average intensity of the outer control. Average signal intensity of the corpus callosum (CC) was determined by an expert who was blind to the experiment from the section 1 mm posterior to the bregma by manually marking the region of interest (ROI), i.e. the corpus callosum (CC). Intensity of ROI was normalized to the intensity of the control tube.

[4] = tested on: cuprisone induced changes in the central nervous system of C57BL/6 mice (hydrocephalus); assay: Cuprizone induced hydrocephalus determined with MRI (chamber/brain volume ratio); assay type: in vivo; conditions: cuprizone-treated mice, after 5 weeks of treatment, i.p.
Procedure: as §1, §2, §3, §4, §5
The development and the degree of hydrocephalus were quantified by calculating the chamber/brain volume ratio. The area of the chambers was outlined manually in each section, and the whole volume was calculated as the sum of the areas multiplied with the thickness of the sections (1 mm). The same method was used for the determination of the […].

[5] = Example 1, doxycycline 1 mg/kg, estriol 0,4 mg/kg bodymass
[6] = Example 2, doxycycline 1 mg/kg, trans-resveratrol 0,4 mg/kg bodymass
[7] = Example 3, 4-HQ 20 mg/kg, trans-resveratrol 0,4 mg/kg bodymass
[8] = Example 4, Carb 2 mg/kg, trans-resveratrol 0.4 mg/kg bodymass

SMILES: CN(C)CC(=O)Nc1ccc2[nH]c(=O)c3ccccc3c2c1.Cl [PJ-34, N-(6-oxo-5 ,6-dihydrophenanthridin-2-yl)-N,N-dimethylacetamide.HCl]
- MBP induced formation of EAE [1]: effectively decreased
- prevention of LPS induced septic shock [2]: successful in preventing LPS induced septic shock

SMILES: C[C@]12CC[C@@H]3c4ccc(O)cc4CC[C@H]3[C@@H]1C[C@@H](O)[C@@H]2O [estriol]
- CC/control tube (demyelinization) [3, 5]: 1.2 ± 0.13
- Chamber/brain vol. ratio (hydrocephalus) [4, 5]: 0.134 ± 0.02

SMILES: C[C@H]1c2cccc(O)c2C(=O)C2=C(O)[C@]3(O)C(=O)C(C(N)=O)=C(O)[C@@H](N(C)C)[C@@H]3[C@@H](O)[C@@H]21 [doxycycline]
- CC/control tube (demyelinization) [3, 5]: 1.1 ± 0.18
- CC/control tube (demyelinization) [3, 6]: 1.2 ± 0.17
- Chamber/brain vol. ratio (hydrocephalus) [4, 5]: 0.128 ± 0.012
- Chamber/brain vol. ratio (hydrocephalus) [4, 6]: 0.117 ± 0.02

SMILES: Oc1ccc(/C=C/c2cc(O)cc(O)c2)cc1 [resveratrol, trans-resveratrol]
- CC/control tube (demyelinization) [3, 6]: 1.3 ± 0.09
- CC/control tube (demyelinization) [3, 7]: 1.3 ± 0.09
- CC/control tube (demyelinization) [3, 8]: 1.3 ± 0.09
- Chamber/brain vol. ratio (hydrocephalus) [4, 6]: 0.138 ± 0.017
- Chamber/brain vol. ratio (hydrocephalus) [4, 7]: 0.138 ± 0.017
- Chamber/brain vol. ratio (hydrocephalus) [4, 8]: 0.138 ± 0.017
